Measurements published in US11028074B2, “CD73 inhibitors” (Eli Lilly and Company, priority 2018, dated 2021).

How the values were obtained:
human CD73 [1] = target: T1, human CD73 (Homo sapiens, UniProt P21589); assay: Human CD73 Biochemical Assay; settings: 2 μM AMP, 50 pM CD73 protein, 30 minutes at RT
T1 construct: human CD73 (amino acids 1-547); 6-His (C); made in house; host or cells: HEK293F (transient transfection)
T1 sequence (P21589 27-547): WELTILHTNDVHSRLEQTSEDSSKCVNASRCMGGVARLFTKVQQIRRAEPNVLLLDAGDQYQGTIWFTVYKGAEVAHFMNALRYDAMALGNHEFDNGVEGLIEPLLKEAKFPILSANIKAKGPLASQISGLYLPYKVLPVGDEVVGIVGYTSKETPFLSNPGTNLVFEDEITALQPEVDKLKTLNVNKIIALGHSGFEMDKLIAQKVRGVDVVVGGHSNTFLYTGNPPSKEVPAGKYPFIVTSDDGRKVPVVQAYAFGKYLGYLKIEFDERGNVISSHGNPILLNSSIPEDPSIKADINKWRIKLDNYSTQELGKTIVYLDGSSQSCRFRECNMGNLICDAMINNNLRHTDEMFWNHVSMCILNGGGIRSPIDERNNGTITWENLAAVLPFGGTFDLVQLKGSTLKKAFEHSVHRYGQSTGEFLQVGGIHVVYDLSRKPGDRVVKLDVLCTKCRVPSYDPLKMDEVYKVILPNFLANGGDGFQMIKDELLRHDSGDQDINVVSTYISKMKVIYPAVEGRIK
Experimental: An Agilent 300 RapidFire automated extraction system (Agilent, Santa Clara, Calif.) is used with three HPLC quaternary pumps, coupled to an Sciex 6500 triple quadrupole mass spectrometer (AB Sciex, Framingham, Mass.) with an electrospray ionization (ESI) interface source.
Solvent A, used for sample loading and washing, is 50 mM ammonium formate, pH 4.0 containing 5% (v/v) ACN. Solvent B, used for sample elution, is 0.3% formic acid+2% ammonium hydroxide in 70% ACN/30% MeOH. Samples are sequentially analyzed by aspirating 10 μL onto the collection loop under vacuum directly from multiwell plates.
Equip the triple quadrupole mass spectrometer with an electrospray ionization (ESI) source and monitor analytes using selected reaction monitoring (SRM) in positive mode (M+H)+. […] Calculate area ratio values for adenosine and adenosine monophosphate using 13C5 Adenosine and 15N5 AMP as internal standards, respectively.
The purpose of this assay is to identify and characterize inhibitors of CD73 enzyme activity. […] Adenosine- and adenosine ribose-^13C5 (internal standard) levels are determined utilizing mass spectrometry as described above. Use signal ratio (adenosine peak integration/adenosine internal standard peak integration) to quantitate each reaction. […] For screening purposes, test each compound at 50 μM in 1% DMSO.

human CD73 [2] = target: T1, human CD73; assay: Human CD73 Mechanism Assay; format: biochemical; settings: varying inhibitor and AMP concentrations 0.023 to 50 μM, mixed-model fit
CD73 [3] = target: T2, CD73 (Homo sapiens, UniProt P21589); assay: Calu6 Human Cell Assay; format: cell-based; settings: Calu6 cells, 50 μM AMP premix, 60 minutes at room temperature
T2 sequence (P21589 27-549): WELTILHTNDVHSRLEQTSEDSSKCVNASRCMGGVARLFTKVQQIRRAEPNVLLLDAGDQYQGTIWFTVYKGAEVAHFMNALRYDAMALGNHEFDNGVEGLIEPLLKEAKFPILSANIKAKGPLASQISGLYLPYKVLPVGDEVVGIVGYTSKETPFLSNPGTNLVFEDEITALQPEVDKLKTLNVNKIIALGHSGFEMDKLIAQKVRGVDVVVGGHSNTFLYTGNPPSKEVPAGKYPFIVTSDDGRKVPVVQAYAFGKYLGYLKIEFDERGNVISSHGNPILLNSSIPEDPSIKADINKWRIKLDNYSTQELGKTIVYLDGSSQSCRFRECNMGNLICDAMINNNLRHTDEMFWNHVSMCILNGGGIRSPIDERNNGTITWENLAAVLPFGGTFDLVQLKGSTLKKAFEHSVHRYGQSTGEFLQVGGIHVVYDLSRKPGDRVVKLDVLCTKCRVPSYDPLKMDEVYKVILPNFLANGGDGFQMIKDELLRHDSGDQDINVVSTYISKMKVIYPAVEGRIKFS
Experimental: The purpose of this assay is to test compounds against CD73 in a cell-based assay. […] Plates are incubated at room temperature for 60 minutes.

CD73 [4] = target: T2, CD73; assay: LC/MS Based Assay for Measuring CD73 Activity in Human Serum; format: biochemical; set-up: from tissue; host or cells: normal human serum; settings: concentrations corrected with the fraction unbound, read-out: EC50, inhibition of CD73 activity in human serum
Experimental: Fresh normal human blood is centrifuged at 1,500 g for 15 minutes at room temperature, and the upper fraction containing serum is collected. […] After incubation on ice for 60 min, […] (50 uM) is added to each well in the plate, and the plate is incubated at room temperature for 15 min. The plate is then placed on dry ice with addition of 200 uL/well of 17.3 TCA followed by shaking at 26 fps for 3 min with a plate-shaking machine (Qiagen). The plate is then centrifuged at 2940 g for 20 min at 4° C. […] After further centrifugation at 2940 g for 20 min at 4° C., 200 ul/well of the supernatant is used for analysis of ^13C10-^15N5-adenosine, ^13C10-^15N5-inosine and ^15N5-hypoxanthine by LC/MS as described above. For EC50 calculations, the concentrations of the CD73 inhibitor in the serum are corrected with the fraction unbound (%) derived from in silico models or experimentally.

[5] = tested on: EG7 (lymphoma), MC38 (colon), AT-3 (breast) and B16F10 (melanoma) tumor cells; settings: syngeneic mice injected subcutaneously with EG7, MC38, AT-3 and B16F10 tumor cells; cited from earlier work

Row | IC50 (human CD73 [1]) [nM] | mechanism of action (type of inhibition) (human CD73 [2]) | IC50 (CD73 [3]) [nM] | EC50 (CD73 [4]) [nM] | Structure (SMILES) | tumor growth [5]
1 | 43 | uncompetitive inhibitor | 28 | 100 | CC[C@H]1C[C@@H]1c1cc(-c2c[nH]c(=O)[nH]c2=O)nnc1C [Example 1, 5-[5-[(1S,2S)-2-Ethylcyclopropyl]-6-methyl-pyridazin-3-yl]-1H-pyrimidine-2,4-dione] | –
2 | – | – | – | – | Nc1ncnc2c1ncn2[C@@H]1O[C@H](COP(=O)(O)CP(=O)(O)O)[C@@H](O)[C@H]1O [α,β-methyleneadenosine 5′-diphosphate] | reduce tumor growth
